In US8206920B2, “Diagnostic assay for the specific treatment of acute myeloid leukemia” (priority 2007, dated 2012):

Assays:
[1] = system: ND13 MN1 cells; experiment: Proliferation of cell cultures of transduced ND13 cells expressing MN1 with ATRA (FIG. 3); format: cell-based, mouse; conditions: 0.1 μM or 1 μM ATRA, up to 96 h
Excerpt: (§1) The expression vector encoding GFP contained to the GFP gene under control of the spleen focus-forming virus promoter, integrated into the vector pSF91 (described in detail in Hildinger et al., J. Virol. 73, 4083-4089 (1999)). The MN1 expression vector contained the human MN1 gene under the control of the same promoter in the same vector backbone.

[2] = system: ND13 GFP cells; experiment: Proliferation of cell cultures of transduced ND13 cells expressing GFP with ATRA (FIG. 3); format: cell-based, mouse; conditions: 0.1 μM or 1 μM ATRA, p=0.026 at 24 hours, p<0.001 at 48, 72 and 96 h
Excerpt: as §1

SMILES: CC1=C(/C=C/C(C)=C/C=C/C(C)=C/C(=O)O)C(C)(C)CCC1 [ATRA, all-trans retinoic acid]
- proliferation (cell numbers) [1]: no significant reduction of proliferation
- proliferation (cell numbers) [2]: significant reduction of proliferation
